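Results reflect a 48-hour exposure of cells in 96-well plates to compound at five concentrations. Abbreviation: GI50, concentration required for 50% inhibition of growth.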 Active and inactive are the calls of the source. Cut-off read from the data, not from the text of the source: active = GI50 up to about 1.1 µM and inactive = higher.

Among the test systems are ACHN; BT-549; COLO 205; HCC 2998; HCT-116; Hs-578T; MDA-N; NCI-H226; NCI/ADR-RES; SF-268; SF-539; SK-MEL-28; SK-MEL-2; SK-MEL-5; SN12C; SNB-19; U-251; UACC-62; UO-31; Malme-3M.
What all share (experiment): inhibition of tumour cell growth, NCI panel, 48 h

On to `NC(CCC(=O)NC(CSC(=O)N(O)c1ccc(Cl)cc1)C(=O)NCC(=O)O)C(=O)O` (stereo not drawn), for which the GI50 with ACHN, in the assay with BT-549, in the assay with COLO 205, in the assay with HCC 2998, in the assay with HCT-116 and in the assay on Hs-578T was > 0.5 µM (active) throughout. Moreover, the GI50 with MDA-N, with NCI-H226, in the assay on NCI/ADR-RES, in the assay with SF-268, in the assay with SF-539 and in the assay with SK-MEL-28 was > 0.5 µM (active) each time. Also, the GI50 with SK-MEL-2, with SK-MEL-5, in the assay on SN12C, in the assay on SNB-19, in the assay on U-251 and in the assay on UACC-62 was > 0.5 µM (active) in each case. In addition, the GI50 in the assay with UO-31 was > 0.5 µM (active).
`O=CC(O)C(O)C1OC(=O)c2cc(O)c(O)c(O)c2C2=C(O)C(O)=C3OC(=O)c4c(c(O)c(O)c5c4C3C2C(=O)O5)-c2c(cc(O)c(O)c2O)C(=O)OCC1O` (stereo not drawn): the GI50 in the assay on ACHN was 44.2 µM (inactive); with BT-549, > 100 µM (inactive); in the assay on COLO 205, 23.2 µM (inactive); in the assay on HCC 2998, 24.8 µM (inactive); in the assay on HCT-116 it was 15.4 µM (inactive); in the assay with Hs-578T, 67.1 µM (inactive). The GI50 with MDA-N is 19 µM (inactive); in the assay with Malme-3M, 81.8 µM (inactive); in the assay with NCI-H226, 21.4 µM (inactive); with NCI/ADR-RES, 88.5 µM (inactive); with SF-268, 28.4 µM (inactive); in the assay with SK-MEL-28, 44.3 µM (inactive). The GI50 in the assay on SK-MEL-2 is 33 µM (inactive); with SK-MEL-5 it was 25.9 µM (inactive); with SN12C it was 15.2 µM (inactive); in the assay with SNB-19 it was 57.8 µM (inactive); with U-251 it was 19.2 µM (inactive); in the assay on UACC-62, 29.2 µM (inactive). The GI50 in the assay with UO-31 was 14.7 µM (inactive).
On to `CN(C)CCn1c(=O)nc2c3c(c([N+](=O)[O-])ccc31)Nc1ccc(O)cc1-2`, for which the GI50 was 3.44 µM (inactive) in the assay on ACHN; 14.5 µM (inactive) in the assay with BT-549; 2.72 µM (inactive) in the assay on COLO 205; 2.48 µM (inactive) with HCC 2998; 1.57 µM (inactive) in the assay on HCT-116; 3.95 µM (inactive) in the assay with Hs-578T. In addition, the GI50 in the assay on MDA-N was 6.7 µM (inactive); with Malme-3M, 3.67 µM (inactive); with NCI-H226, 3.37 µM (inactive); with NCI/ADR-RES, 34.2 µM (inactive); in the assay with SF-268 it was 1.95 µM (inactive); in the assay on SF-539, 1.7 µM (inactive). Besides, the GI50 was 14.8 µM (inactive) in the assay with SK-MEL-28; 15.7 µM (inactive) with SK-MEL-2; 4.45 µM (inactive) in the assay with SK-MEL-5; 2.61 µM (inactive) in the assay on SN12C; 2.03 µM (inactive) with SNB-19; 1.53 µM (inactive) in the assay on U-251. Also, the GI50 in the assay with UACC-62 is 4.5 µM (inactive); in the assay on UO-31, 3.44 µM (inactive).
As to `N=C(N)N/N=C/c1ccc(O)c(C(=O)O)c1`, the GI50 in the assay with ACHN, with BT-549, in the assay with COLO 205, with HCC 2998, in the assay with HCT-116 and in the assay on Hs-578T was > 100 µM (inactive) each time. Further, the GI50 in the assay on MDA-N is > 100 µM (inactive); in the assay on Malme-3M, 99.1 µM (inactive); with NCI-H226 it was > 100 µM (inactive); with NCI/ADR-RES, > 100 µM (inactive); in the assay on SF-268, > 100 µM (inactive); with SF-539, > 100 µM (inactive). In addition, the GI50 in the assay with SK-MEL-28, in the assay on SK-MEL-2, in the assay with SK-MEL-5, with SNB-19, in the assay with U-251 and in the assay on UACC-62 was > 100 µM (inactive) throughout. Further, the GI50 with UO-31 is > 100 µM (inactive).
As to `CC(NS(C)(=O)=O)c1ccccc1` (stereo not drawn), the GI50 in the assay with BT-549, in the assay with COLO 205, in the assay on HCC 2998, in the assay on HCT-116, in the assay with Hs-578T and with MDA-N was > 100 µM (inactive) throughout. Besides, the GI50 with Malme-3M, with NCI-H226, in the assay on NCI/ADR-RES, with SF-539, with SK-MEL-28 and in the assay on SK-MEL-2 was > 100 µM (inactive) throughout. Also, the GI50 in the assay on SK-MEL-5, in the assay with SN12C, with SNB-19, with U-251, in the assay on UACC-62 and in the assay on UO-31 was > 100 µM (inactive) throughout.
As to `C=C1C(=O)OC2/C=C(/C)C(OC(C)=O)CC(O)/C(C)=C\C(OC(=O)/C(C)=C\C)C12` (stereo not drawn), the GI50 in the assay with ACHN was 42.8 µM (inactive); in the assay on BT-549 it was 53.5 µM (inactive); in the assay with COLO 205 it was 34.4 µM (inactive); in the assay on HCC 2998 it was > 100 µM (inactive); in the assay on HCT-116 it was 18.2 µM (inactive); with Hs-578T it was > 100 µM (inactive). Besides, the GI50 with MDA-N was 48.1 µM (inactive); with Malme-3M, 14.3 µM (inactive); in the assay with NCI-H226 it was > 100 µM (inactive); in the assay with NCI/ADR-RES, 58.9 µM (inactive); in the assay with SF-268 it was > 100 µM (inactive); with SF-539, > 100 µM (inactive). Further, the GI50 in the assay with SK-MEL-28 was 43.2 µM (inactive); in the assay on SK-MEL-2 it was > 100 µM (inactive); with SK-MEL-5, > 100 µM (inactive); in the assay on SN12C, 50.6 µM (inactive); in the assay on SNB-19, > 100 µM (inactive); in the assay on U-251, > 100 µM (inactive). In addition, in the assay with UACC-62, the GI50 is > 100 µM (inactive).
As for `CCOC(=O)Cc1nc2sc(S(N)(=O)=O)nn2c1Br`, the GI50 in the assay with ACHN was 27.2 µM (inactive); in the assay with BT-549 it was 32.1 µM (inactive); in the assay with COLO 205, 39.4 µM (inactive); in the assay with HCC 2998, 22.2 µM (inactive); in the assay on HCT-116, 31 µM (inactive); in the assay with Hs-578T, > 100 µM (inactive). Moreover, the GI50 is 35.1 µM (inactive) in the assay on MDA-N; 29.2 µM (inactive) in the assay on Malme-3M; 27.2 µM (inactive) in the assay on NCI-H226; 47.4 µM (inactive) with NCI/ADR-RES; 56.5 µM (inactive) with SF-268; 33.1 µM (inactive) with SK-MEL-28. In addition, the GI50 is 28.5 µM (inactive) in the assay on SK-MEL-2; 16.1 µM (inactive) in the assay on SK-MEL-5; 23.5 µM (inactive) in the assay with SN12C; 87.7 µM (inactive) with SNB-19; 15.3 µM (inactive) in the assay on U-251; 16.6 µM (inactive) in the assay with UACC-62. Besides, in the assay with UO-31, the GI50 is 15.8 µM (inactive).

The values above are taken from ChEMBL document CHEMBL1201862, “PubChem BioAssay data set” (2004).
